Results published in ChEMBL document CHEMBL5053536, “Discovery of Quinazoline-2,4(1H,3H)-dione Derivatives Containing 3-Substituted Piperizines as Potent PARP-1/2 Inhibitors─Design, Synthesis, In Vivo Antitumor Activity, and X-ray Crystal Structure Analysis” (J Med Chem, 2021).
Active and inactive are the calls of the source. The rule behind the calls is not given here.

Tests used:
[1] = biological target: T1, Poly [ADP-ribose] polymerase 1 (Homo sapiens, UniProt P09874); assay: Inhibition of recombinant human PARP1 using NAD+ as substrate incubated for 1 hr by ELISA
T1 sequence (P09874 whole entry): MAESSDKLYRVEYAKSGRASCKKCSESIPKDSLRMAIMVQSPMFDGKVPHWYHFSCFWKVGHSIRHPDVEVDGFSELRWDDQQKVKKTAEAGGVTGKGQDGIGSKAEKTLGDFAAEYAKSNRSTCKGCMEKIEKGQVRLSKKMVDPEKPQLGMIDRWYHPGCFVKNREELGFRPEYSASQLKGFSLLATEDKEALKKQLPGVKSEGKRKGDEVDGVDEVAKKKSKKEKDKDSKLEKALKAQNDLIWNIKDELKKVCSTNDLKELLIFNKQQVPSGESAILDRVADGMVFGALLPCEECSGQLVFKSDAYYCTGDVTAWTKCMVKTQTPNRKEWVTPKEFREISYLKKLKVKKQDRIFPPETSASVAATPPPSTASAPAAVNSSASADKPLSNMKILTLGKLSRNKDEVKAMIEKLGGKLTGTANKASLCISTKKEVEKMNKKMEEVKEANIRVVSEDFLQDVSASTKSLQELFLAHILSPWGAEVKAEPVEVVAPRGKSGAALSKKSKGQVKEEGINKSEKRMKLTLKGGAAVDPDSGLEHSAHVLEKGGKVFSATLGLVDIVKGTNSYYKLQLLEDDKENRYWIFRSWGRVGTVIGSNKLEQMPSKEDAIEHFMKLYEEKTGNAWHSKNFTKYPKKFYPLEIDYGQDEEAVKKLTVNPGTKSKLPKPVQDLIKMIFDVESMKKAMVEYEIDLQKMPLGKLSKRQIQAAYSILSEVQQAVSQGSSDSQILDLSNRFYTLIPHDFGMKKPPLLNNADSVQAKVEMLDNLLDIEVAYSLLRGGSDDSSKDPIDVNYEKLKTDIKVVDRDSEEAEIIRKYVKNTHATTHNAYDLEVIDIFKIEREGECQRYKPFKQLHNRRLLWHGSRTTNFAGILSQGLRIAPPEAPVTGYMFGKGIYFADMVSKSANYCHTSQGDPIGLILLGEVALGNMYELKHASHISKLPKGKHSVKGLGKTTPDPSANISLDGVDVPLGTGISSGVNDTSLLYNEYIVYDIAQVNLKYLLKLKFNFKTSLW

Homo sapiens = organism: Homo sapiens; assay: Selectivity index, ratio of IC50 for inhibition of recombinant human PARP2 to IC50 for inhibition of recombinant human PARP1
T98G [2] = assay: Inhibition of PARP1/2-mediated DNA repair in human T98G cells assessed as increase in […] expression at 1 to 10 uM after 24 hrs in absence of TMZ by Western blot analysis; format: cell-based; details: dose 1-10 µM
T98G [3] = assay: Inhibition of PARP1/2-mediated DNA repair in human T98G cells assessed as increase in […] expression at 1 to 10 uM after 24 hrs in presence of TMZ by Western blot analysis; format: cell-based; details: dose 1-10 µM
T98G [4] = assay: Inhibition of PARP1/2-mediated DNA repair in human T98G cells assessed as reduction in PAR formation at 1 to 10 uM after 24 hrs in presence of TMZ by Western blot analysis; format: cell-based; details: dose 1-10 µM
Daoy = assay: Cytotoxicity against human Daoy cells assessed as reduction in cell viability at 5 to 10 uM incubated for 72 hrs in presence of TMZ by MTT assay; format: functional, cell-based; details: dose 5-10 µM
U-251 [5] = assay: Cytotoxicity against human U251 cells assessed as reduction in cell viability at 5 to 10 uM incubated for 72 hrs in presence of TMZ by MTT assay; format: functional, cell-based; details: dose 5-10 µM
T98G [6] = assay: Cytotoxicity against human T98G cells assessed as reduction in cell viability at 5 to 10 uM incubated for 72 hrs in presence of TMZ by MTT assay; format: functional, cell-based; details: dose 5-10 µM
U-251 [7] = assay: Cytotoxicity against TMZ-resistant human U-251 cells assessed as reduction in cell viability at 5 to 10 uM incubated for 72 hrs in presence of TMZ by MTT assay; format: functional, cell-based; details: dose 5-10 µM
[8] = biological target: T1, Poly [ADP-ribose] polymerase 1; assay: Binding affinity to recombinant human PARP1 assessed as dissociation constant by SPR assay
[9] = biological target: Poly [ADP-ribose] polymerase 2 (Homo sapiens, UniProt Q9UGN5); assay: Binding affinity to recombinant human PARP2 assessed as dissociation constant by SPR assay
Sequence of Poly [ADP-ribose] polymerase 2 (Q9UGN5 whole entry): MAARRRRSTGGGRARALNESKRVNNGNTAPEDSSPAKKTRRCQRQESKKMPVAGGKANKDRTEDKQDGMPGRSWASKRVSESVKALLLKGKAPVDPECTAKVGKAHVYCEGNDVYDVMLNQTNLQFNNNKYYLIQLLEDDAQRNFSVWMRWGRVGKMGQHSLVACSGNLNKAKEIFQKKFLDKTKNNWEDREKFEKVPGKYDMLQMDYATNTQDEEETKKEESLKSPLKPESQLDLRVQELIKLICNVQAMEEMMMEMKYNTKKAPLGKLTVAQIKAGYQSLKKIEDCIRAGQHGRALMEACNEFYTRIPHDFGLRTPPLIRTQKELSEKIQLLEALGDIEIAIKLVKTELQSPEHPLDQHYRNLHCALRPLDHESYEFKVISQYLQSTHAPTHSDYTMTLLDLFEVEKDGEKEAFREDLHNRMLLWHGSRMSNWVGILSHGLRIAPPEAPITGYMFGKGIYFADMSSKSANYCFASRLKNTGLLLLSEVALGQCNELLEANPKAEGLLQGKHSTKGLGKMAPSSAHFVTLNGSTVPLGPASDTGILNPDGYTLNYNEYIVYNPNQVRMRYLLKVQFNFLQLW

[10] = Half life in BALB/c mouse at 25 mg/kg, po measured upto 24 hrs by LC-MS/MS analysis; format: ADME, organism-based; details: in vivo
[11] = Half life in Sprague-Dawley rat at 20 mg/kg, po measured upto 24 hrs by LC-MS/MS analysis; format: ADME, organism-based; details: in vivo
[12] = Half life in Beagle dog at 20 mg/kg, po measured upto 24 hrs by LC-MS/MS analysis; format: ADME, organism-based, Canis lupus familiaris; details: in vivo
[13] = Half life in Beagle dog at 0.4 mg/kg, iv measured upto 24 hrs by LC-MS/MS analysis; format: ADME, organism-based, Canis lupus familiaris; details: in vivo
[14] = Cmax in Beagle dog at 0.4 mg/kg, iv measured upto 24 hrs by LC-MS/MS analysis; format: ADME, organism-based, Canis lupus familiaris; set-up: time < 24 hrs, dose 0.4 mg/kg, route iv; details: in vivo
[15] = AUC(0 to t) in Beagle dog at 20 mg/kg, po measured upto 24 hrs by LC-MS/MS analysis; format: ADME, organism-based, Canis lupus familiaris; set-up: time < 24 hrs, dose 20 mg/kg, route po; details: in vivo
[16] = AUC(0 to t) in Beagle dog at 0.4 mg/kg, iv measured upto 24 hrs by LC-MS/MS analysis; format: ADME, organism-based, Canis lupus familiaris; set-up: time < 24 hrs, dose 0.4 mg/kg, route iv; details: in vivo
[17] = AUC(0 to infinity) in BALB/c mouse at 25 mg/kg, po measured upto 24 hrs by LC-MS/MS analysis; format: ADME, organism-based; set-up: time < 24 hrs, dose 25 mg/kg, route po; details: in vivo
[18] = AUC(0 to infinity) in Beagle dog at 0.4 mg/kg, iv measured upto 24 hrs by LC-MS/MS analysis; format: ADME, organism-based, Canis lupus familiaris; set-up: dose 0.4 mg/kg, time < 24 hrs, route iv; details: in vivo
[19] = MRT(0 to t) in Sprague-Dawley rat at 20 mg/kg, po measured upto 24 hrs by LC-MS/MS analysis; format: ADME, organism-based; details: in vivo
[20] = MRT(0 to t) in Beagle dog at 20 mg/kg, po measured upto 24 hrs by LC-MS/MS analysis; format: ADME, organism-based, Canis lupus familiaris; details: in vivo
[21] = MRT(0 to infinity) in Sprague-Dawley rat at 20 mg/kg, po measured upto 24 hrs by LC-MS/MS analysis; format: ADME, organism-based; details: in vivo
[22] = Oral bioavailability in Beagle dog at 20 mg/kg measured upto 24 hrs by LC-MS/MS analysis; format: ADME, organism-based, Canis lupus familiaris; details: in vivo
MX1 = assay: Antitumor activity against human MX1 cells xenografted in athymic nu/nu mouse assessed as tumor growth inhibition at 12.5 to 25 mg/kg, po administered once daily for 5 days and measured on day 7 in presence of 50 mg/kg TMZ; format: functional; details: dose 12.5-25 mg/kg, time 7 day
MDA-MB-436 = assay: Antitumor activity against human MDA-MB-436 cells xenografted in athymic nu/nu mouse assessed as tumor growth inhibition at 20 to 80 mg/kg, po administered once daily for 17 days; format: functional; details: dose 20-80 mg/kg, time 17 day
U-87 MG [23] = assay: Antitumor activity against human U-87MG cells xenografted in BALB/c mouse assessed as reduction in tumor volume at 50 mg/kg, po administered once daily for 5 days and measured on day 8 by MRI scanner (reference value: 202 +/- 120.4 mm3); format: functional, U-87MG ATCC; details: time 8 day
U-87 MG [24] = assay: Antitumor activity against human U-87MG cells xenografted in BALB/c mouse assessed as reduction in tumor volume at 50 mg/kg, po administered once daily for 5 days and measured on day 8 in presence of 30 mg/kg TMZ by MRI scanner (reference value: 202 +/- 120.4 mm3); format: functional, U-87MG ATCC; details: time 8 day
[25] = Drug concentration in Sprague-Dawley rat brain assessed as brain blood ratio measured upto 24 hrs by LC-MS/MS analysis; format: ADME, organism-based; details: read-out: BBR
U-87 MG [26] = assay: Antitumor activity against human U-87MG cells xenografted in BALB/c mouse assessed as reduction in tumor volume at 50 mg/kg, po administered once daily for 5 days and measured on day 32 in presence of 30 mg/kg TMZ by MRI scanner; format: functional, U-87MG ATCC; details: time 32 day
U-87 MG [27] = assay: Antitumor activity against human U-87MG cells xenografted in BALB/c mouse assessed as T/C ratio at 25 mg/kg, po administered once daily for 5 days and measured upto 32 days in presence of 30 mg/kg TMZ by MRI scanner; format: functional, U-87MG ATCC; details: time <= 32 day
U-87 MG [28] = assay: Antitumor activity against human U-87MG cells xenografted in BALB/c mouse assessed as T/C ratio at 50 mg/kg, po administered once daily for 5 days and measured upto 32 days in presence of 30 mg/kg TMZ by MRI scanner; format: functional, U-87MG ATCC; details: time <= 32 day
U-87 MG [29] = assay: Antitumor activity against human U-87MG cells xenografted in BALB/c mouse assessed as tumor growth inhibition at 25 mg/kg, po administered once daily for 5 days and measured upto 32 days in presence of 30 mg/kg TMZ by MRI scanner; format: functional, U-87MG ATCC; details: 768 h, time <= 32 day, read-out: TGI
[30] = Acute toxicity in po dosed Crl: […](ICR)-BR mouse after 14 days; format: organism-based; details: in vivo, time 14 day
Mus musculus = assay: Toxicity in BALB/c mouse xenografted with human U-87MG cells assessed as effect on body weight at 50 mg/kg, po administered once daily for 5 days and measured on day 8 (reference value: 18.2 +/- 0.6 g); format: organism-based; details: in vivo, 192 h, time 8 day

With `CC[C@@H]1CN(C(=O)c2cc(Cn3c(=O)[nH]c(=O)c4ccccc43)ccc2F)CCN1CC` as the molecule, how does the IC50 [1] read?
The IC50 was 0.51 nM.

What about the Ratio IC50 (Homo sapiens) of the same molecule?
The Ratio IC50 was 45.

And the inhibition (T98G [2])?
The inhibition was “Active”.

And the inhibition (T98G [3])?
The inhibition was “Active”.

And the inhibition (T98G [4])?
The inhibition was “Active”.

And the Activity (Daoy)?
The Activity was “Active”.

And the Activity (U-251 [5])?
Its Activity is “Active”.

What about the Activity (T98G [6]) of the same molecule?
The Activity was “Active”.

And the Activity (U-251 [7])?
The Activity was “Active”.

And the Kd [8]?
The Kd was 1.92 nM.

What about the Kd [9] of the same molecule?
The Kd was 51.5 nM.

What about the half-life [10] of the same molecule?
The half-life was 0.57 h.

And the half-life [11]?
Its half-life is 0.8 h.

What about the half-life [12] of the same molecule?
The half-life was 3.78 h.

And the half-life [13]?
Its half-life is 1.37 h.

And the Cmax [14]?
Its Cmax is 1250 ng/mL.

What about the AUC(0-t) at 24 h [15] of the same molecule?
Its AUC(0-t) at 24 h is 34200 ng·h/mL.

And the AUC(0-t) at 24 h [16]?
The AUC(0-t) at 24 h was 1410 ng·h/mL.

And the AUC(0-inf) [17]?
The AUC(0-inf) was 593 ng·h/mL.

What about the AUC(0-inf) [18] of the same molecule?
Its AUC(0-inf) is 1430 ng·h/mL.

What about the MRT last at 24 h [19] of the same molecule?
The MRT last at 24 h was 1.24 h.

What about the MRT last at 24 h [20] of the same molecule?
The MRT last at 24 h was 4.58 h.

And the MRT inf [21]?
Its MRT inf is 1.37 h.

And the bioavailability [22]?
Its bioavailability is 48.3%.

And the TGI (MX1)?
Its TGI is greater than 90%.

And the TGI (MDA-MB-436)?
Its TGI is 68%.

And the Activity (U-87 MG [23])?
The Activity was 218.6 mm3.

And the Activity (U-87 MG [24])?
The Activity was 0 mm3.

What about the Kp at 24 h [25] of the same molecule?
The Kp at 24 h was 0.1.

What about the Activity (U-87 MG [26]) of the same molecule?
The Activity was 11.9 mm3.

And the T/C (U-87 MG [27])?
Its T/C is 12.1%.

And the T/C (U-87 MG [28])?
Its T/C is 14.1%.

What about the inhibition in vivo at 25 mg/kg (U-87 MG [29]) of the same molecule?
Its inhibition in vivo at 25 mg/kg is 87.9%.

And the LD50 at 336 h [30]?
The LD50 at 336 h was 3500 mg/kg.

And the Activity (Mus musculus)?
Its Activity is 15.3 g.
